Measurements reported in ChEMBL document CHEMBL4673385, “Discovery of Potent Inhibitors of Streptococcus mutans Biofilm with Antivirulence Activity” (ACS Med Chem Lett, 2021).
≈ marks a conversion by molar mass, not a printed value. Calls of active or inactive are those of the source. No rule for the calls is given here.

Legend:
[1] = tested on: Streptococcus mutans; assay: Antibiofilm activity against Streptococcus mutans UA159 assessed as inhibition of biofilm formation by serial dilution method; assay type: functional, organism-based
[2] = tested on: Streptococcus mutans; assay: Bactericidal activity against Streptococcus mutans UA159 assessed as reduction in bacterial growth at 100 uM after 24 hrs; assay type: functional, organism-based
[3] = Solubility of compound in water; assay type: physicochemical
[4] = Streptococcus mutans, UA159, read-out: IC50

Row | IC50 [1, 4] [µM] | solubility ([3]; water, read-out: solubility) [µg/mL] | IC50 [1] | solubility ([3]; buffer) | SMILES | Activity [2]
1 | 42.3 | 25 (≈ 73.2 µM) | – | – | NC(=O)c1cccc(NC(=O)c2cc3cc([N+](=O)[O-])ccc3s2)c1 | inactive
2 | 92.3 | < 5 | – | – | COC(=O)c1ccc(NC(=O)c2cnc3ccccc3c2)cc1 | inactive
3 | > 300 | 10 (≈ 33.5 µM) | – | – | O=C(Nc1ccccc1)c1cc2cc([N+](=O)[O-])ccc2s1 | inactive
4 | 165 | 10 (≈ 34.3 µM) | – | – | NC(=O)c1ccccc1NC(=O)c1ccc2ccccc2n1 | inactive
5 | 2.7 | 25 (≈ 73.5 µM) | – | – | COC(=O)c1cccc(NC(=O)c2cc3cc([N+](=O)[O-])ccc3o2)c1 | inactive
6 | – | – | Nd(Insoluble) | Insoluble | COC(=O)c1ccccc1NC(=O)c1cc2cc([N+](=O)[O-])ccc2[nH]1 | inactive
7 | 193 | 5 (≈ 15.8 µM) | – | – | NC(=O)c1ccccc1NC(=O)c1ccc(-c2ccccc2)cc1 | inactive
8 | > 300 | 25 (≈ 88.6 µM) | – | – | O=C(Nc1ccccc1)c1cc2cc([N+](=O)[O-])ccc2o1 | inactive
9 | – | – | Nd(Insoluble) | Insoluble | COC(=O)c1ccccc1NC(=O)c1cc2cc(OC)ccc2[nH]1 | inactive
